Data: ChEMBL document CHEMBL1201862, “PubChem BioAssay data set” (2004)
Active and inactive are the calls of the source.

Assays:
[1] = biological target: Epstein-Barr nuclear antigen 1 (Epstein-Barr virus (strain B95-8) (HHV-4) (Human herpesvirus 4), UniProt P03211); assay: EBNA-1 inhibitors, dose response, biochemical, fluorescence polarization, 1536-well (AID 2381); parameters: species or system human gammaherpesvirus 4;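 also: fluorescence polarization of a Cy5 DNA probe bound by EBNA-1 protein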
Epstein-Barr nuclear antigen 1, sequence (P03211 whole entry): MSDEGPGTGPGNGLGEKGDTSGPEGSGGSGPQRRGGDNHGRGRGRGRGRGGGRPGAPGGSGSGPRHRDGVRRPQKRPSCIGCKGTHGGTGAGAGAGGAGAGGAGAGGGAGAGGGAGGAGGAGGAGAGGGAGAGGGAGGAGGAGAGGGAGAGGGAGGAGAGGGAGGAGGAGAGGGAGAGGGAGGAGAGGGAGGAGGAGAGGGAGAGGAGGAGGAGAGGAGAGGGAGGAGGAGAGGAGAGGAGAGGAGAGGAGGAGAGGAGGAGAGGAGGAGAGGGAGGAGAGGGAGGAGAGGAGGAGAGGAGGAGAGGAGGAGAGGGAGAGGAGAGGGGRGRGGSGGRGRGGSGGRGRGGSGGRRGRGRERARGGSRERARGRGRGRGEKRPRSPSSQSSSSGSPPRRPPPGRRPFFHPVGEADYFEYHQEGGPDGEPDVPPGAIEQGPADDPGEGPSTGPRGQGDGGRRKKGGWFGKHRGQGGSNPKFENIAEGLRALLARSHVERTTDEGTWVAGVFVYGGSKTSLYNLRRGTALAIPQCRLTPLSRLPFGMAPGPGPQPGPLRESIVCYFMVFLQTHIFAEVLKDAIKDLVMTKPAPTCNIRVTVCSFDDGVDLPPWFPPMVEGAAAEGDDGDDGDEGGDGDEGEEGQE

[2] = biological target: Lytic switch protein BZLF1 (Epstein-Barr virus (strain B95-8) (HHV-4) (Human herpesvirus 4), UniProt P03206); assay: EBV ZTA inhibitors, dose response, counter-screen for EBNA-1 inhibitor project, biochemical, fluorescence polarization, Epstein-Barr virus, 1536-well (AID 2377); parameters: species or system human gammaherpesvirus 4;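 also: fluorescence polarization of Cy5-labelled ZRE DNA probe bound by purified Zta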
Lytic switch protein BZLF1, sequence (P03206 whole entry): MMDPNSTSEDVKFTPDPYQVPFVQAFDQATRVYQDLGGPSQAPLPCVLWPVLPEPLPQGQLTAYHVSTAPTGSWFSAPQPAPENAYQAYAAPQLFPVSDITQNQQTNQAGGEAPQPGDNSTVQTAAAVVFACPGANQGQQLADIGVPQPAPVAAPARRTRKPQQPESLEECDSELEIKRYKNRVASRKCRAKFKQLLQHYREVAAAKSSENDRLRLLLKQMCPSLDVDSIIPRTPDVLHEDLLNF

[3] = A cytotoxicity screen of small molecule inhibitors of the PhoP region in Salmonella typhi identified in the primary screen. [Related pubchem assays: 1850, 1864, 1985 ]; assay type: functional
Genome polyprotein = Genome polyprotein (dengue virus type 2, UniProt P29990); assay: Dengue-2 NS5 methyltransferase inhibitors, primary screen, biochemical, confirmation dose response (AID 588689); assay type: functional
Genome polyprotein, sequence (P29990 2492-3391 limits assumed): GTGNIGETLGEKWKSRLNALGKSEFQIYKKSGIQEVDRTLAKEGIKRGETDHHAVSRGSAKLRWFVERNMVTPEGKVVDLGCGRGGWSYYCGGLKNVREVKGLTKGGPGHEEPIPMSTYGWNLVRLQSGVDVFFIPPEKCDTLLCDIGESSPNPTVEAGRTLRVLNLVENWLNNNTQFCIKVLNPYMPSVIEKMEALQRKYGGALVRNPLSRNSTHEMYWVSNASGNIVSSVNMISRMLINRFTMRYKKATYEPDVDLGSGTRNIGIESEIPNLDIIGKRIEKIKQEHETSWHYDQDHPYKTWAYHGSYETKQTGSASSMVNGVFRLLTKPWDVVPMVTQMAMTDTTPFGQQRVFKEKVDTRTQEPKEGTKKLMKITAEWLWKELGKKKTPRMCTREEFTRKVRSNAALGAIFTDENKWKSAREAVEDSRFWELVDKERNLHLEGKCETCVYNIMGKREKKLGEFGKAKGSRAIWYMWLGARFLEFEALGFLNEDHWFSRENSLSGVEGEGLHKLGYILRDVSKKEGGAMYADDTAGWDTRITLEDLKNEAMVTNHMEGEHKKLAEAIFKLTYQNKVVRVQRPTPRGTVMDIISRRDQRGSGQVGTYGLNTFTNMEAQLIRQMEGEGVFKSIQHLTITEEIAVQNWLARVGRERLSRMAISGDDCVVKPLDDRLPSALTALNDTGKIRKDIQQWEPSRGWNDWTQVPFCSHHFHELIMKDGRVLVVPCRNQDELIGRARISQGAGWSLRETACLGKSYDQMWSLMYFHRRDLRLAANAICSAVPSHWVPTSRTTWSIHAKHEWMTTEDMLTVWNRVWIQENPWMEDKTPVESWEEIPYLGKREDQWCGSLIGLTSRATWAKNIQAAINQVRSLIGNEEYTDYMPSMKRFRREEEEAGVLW

[4] = biological target: T1, Mannose-6-phosphate isomerase (Homo sapiens, UniProt P34949); assay: inhibitors of human PMI, primary screen, biochemical, fluorescence intensity, coupled assay (AID 1209)
T1 sequence (P34949 whole entry): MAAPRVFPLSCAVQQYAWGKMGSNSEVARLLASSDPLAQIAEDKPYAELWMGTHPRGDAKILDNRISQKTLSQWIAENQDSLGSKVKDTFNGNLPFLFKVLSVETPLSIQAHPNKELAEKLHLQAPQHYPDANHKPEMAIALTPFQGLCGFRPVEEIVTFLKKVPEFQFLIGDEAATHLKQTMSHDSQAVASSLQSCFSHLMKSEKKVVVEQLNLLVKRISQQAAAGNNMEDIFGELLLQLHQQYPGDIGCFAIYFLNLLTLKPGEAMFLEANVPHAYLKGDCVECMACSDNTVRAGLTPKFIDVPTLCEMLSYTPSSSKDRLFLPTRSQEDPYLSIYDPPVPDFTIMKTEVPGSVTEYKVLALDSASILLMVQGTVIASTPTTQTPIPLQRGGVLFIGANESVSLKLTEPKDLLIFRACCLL

[5] = biological target: T1, Mannose-6-phosphate isomerase; assay: human PMI inhibitors, high substrate, primary screen, biochemical, fluorescence intensity, high mannose 6-phosphate (AID 1220)
[6] = biological target: T2, Replicative DNA helicase DnaB (Mycobacterium tuberculosis, UniProt P9WMR3); assay: DnaB intein splicing inhibitors, dose response, biochemical, cell-free fluorescence (AID 449749); assay type: functional
T2 sequence (P9WMR3 whole entry): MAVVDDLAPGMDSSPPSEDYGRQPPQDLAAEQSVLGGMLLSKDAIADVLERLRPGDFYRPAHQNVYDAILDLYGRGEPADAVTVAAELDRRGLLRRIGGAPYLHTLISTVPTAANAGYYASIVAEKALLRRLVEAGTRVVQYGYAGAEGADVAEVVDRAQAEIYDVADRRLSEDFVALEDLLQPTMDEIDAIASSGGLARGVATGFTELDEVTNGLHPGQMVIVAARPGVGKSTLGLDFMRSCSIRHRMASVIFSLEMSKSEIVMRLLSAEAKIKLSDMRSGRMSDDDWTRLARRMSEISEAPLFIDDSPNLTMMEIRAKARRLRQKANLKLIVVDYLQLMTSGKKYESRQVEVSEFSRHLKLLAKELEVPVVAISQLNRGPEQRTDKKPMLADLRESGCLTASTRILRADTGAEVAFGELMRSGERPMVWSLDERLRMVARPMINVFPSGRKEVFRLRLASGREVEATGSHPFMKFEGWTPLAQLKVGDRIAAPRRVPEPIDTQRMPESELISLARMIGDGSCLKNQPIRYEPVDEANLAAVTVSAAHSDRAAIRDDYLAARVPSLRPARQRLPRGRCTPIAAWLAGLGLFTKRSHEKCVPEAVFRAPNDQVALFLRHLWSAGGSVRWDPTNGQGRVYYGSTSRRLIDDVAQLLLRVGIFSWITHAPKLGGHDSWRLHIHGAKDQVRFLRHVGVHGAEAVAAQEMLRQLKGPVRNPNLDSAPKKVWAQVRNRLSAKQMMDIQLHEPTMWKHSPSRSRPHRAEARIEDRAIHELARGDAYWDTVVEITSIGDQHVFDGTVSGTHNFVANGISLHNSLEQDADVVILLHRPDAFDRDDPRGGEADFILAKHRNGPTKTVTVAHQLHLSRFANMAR

Protein RecA = biological target: T3, Protein RecA (Mycobacterium tuberculosis, UniProt P9WHJ3); assay: Fluorescence Cell-Free Homogeneous Dose Retest to Identify Inhibitors of RecA-Intein Splicing Activity. [Related pubchem assays (depositor defined):AID2097, AID2223, AID489010, AID492950]; assay type: functional
T3 sequence (P9WHJ3 whole entry): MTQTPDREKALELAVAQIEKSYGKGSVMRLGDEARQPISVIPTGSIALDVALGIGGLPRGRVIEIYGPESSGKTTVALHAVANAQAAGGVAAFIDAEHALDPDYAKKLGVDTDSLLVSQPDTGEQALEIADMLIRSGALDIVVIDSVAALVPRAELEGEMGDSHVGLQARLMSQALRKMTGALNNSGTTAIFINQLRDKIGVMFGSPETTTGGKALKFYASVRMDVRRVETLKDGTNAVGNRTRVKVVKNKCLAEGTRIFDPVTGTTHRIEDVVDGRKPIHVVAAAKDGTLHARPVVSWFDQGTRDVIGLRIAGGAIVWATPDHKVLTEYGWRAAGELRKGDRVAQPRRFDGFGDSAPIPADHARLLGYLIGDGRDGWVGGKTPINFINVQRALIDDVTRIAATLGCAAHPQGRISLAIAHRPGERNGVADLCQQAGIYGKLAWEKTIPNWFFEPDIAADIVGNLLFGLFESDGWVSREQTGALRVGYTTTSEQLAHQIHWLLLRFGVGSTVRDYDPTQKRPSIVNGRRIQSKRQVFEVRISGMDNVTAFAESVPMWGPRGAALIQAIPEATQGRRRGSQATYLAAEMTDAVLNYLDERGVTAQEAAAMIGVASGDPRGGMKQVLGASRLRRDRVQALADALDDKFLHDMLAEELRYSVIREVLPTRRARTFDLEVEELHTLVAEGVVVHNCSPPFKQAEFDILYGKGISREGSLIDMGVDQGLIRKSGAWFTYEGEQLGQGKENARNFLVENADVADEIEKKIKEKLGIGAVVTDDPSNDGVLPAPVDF

[7] = NIH-3T3 fibroblast cytotoxicity, dose response, cytotoxicity control, cell-based, fluorescence, Alamar Blue, secondary assay (AID 2327); assay type: functional;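 also: NIH-3T3 mouse fibroblasts cultured with fluconazole at 8 µg/mL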
Aspartyl aminopeptidase = Aspartyl aminopeptidase (Plasmodium falciparum 3D7, UniProt Q8I2J3)
Aspartyl aminopeptidase, sequence (Q8I2J3 whole entry): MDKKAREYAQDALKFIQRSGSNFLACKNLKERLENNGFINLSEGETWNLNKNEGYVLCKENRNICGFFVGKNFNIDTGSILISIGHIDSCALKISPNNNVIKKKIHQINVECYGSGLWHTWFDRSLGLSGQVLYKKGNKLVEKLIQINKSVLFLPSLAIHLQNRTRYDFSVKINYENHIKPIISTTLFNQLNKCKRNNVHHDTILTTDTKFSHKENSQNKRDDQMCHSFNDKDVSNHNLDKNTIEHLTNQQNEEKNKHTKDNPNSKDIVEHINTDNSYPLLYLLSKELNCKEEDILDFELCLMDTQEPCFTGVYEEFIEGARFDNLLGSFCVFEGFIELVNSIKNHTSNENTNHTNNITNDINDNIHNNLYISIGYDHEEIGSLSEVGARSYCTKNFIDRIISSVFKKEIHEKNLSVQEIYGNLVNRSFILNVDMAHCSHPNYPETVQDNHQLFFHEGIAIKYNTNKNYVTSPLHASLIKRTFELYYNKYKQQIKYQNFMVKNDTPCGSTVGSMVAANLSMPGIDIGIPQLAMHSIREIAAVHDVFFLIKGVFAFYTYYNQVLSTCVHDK

Procathepsin L = Procathepsin L (Homo sapiens, UniProt P07711)
Procathepsin L, sequence (P07711 whole entry): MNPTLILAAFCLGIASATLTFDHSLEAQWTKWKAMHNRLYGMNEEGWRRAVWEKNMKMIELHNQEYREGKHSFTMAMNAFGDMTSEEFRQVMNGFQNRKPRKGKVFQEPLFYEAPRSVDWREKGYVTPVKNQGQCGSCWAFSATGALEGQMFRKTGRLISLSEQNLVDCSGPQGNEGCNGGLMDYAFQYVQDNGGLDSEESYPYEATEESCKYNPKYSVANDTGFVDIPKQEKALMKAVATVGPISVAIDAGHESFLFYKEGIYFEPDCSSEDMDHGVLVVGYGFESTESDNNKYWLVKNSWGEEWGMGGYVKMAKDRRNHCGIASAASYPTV

[8] = C. albicans growth with fluconazole, confirmation, fluorescence, retest (AID 2467); assay type: functional, cell-based
[9] = biological target: Induced myeloid leukemia cell differentiation protein Mcl-1 (Homo sapiens, UniProt Q07820); assay: MCL1-BIM BH3 interaction inhibitors, dose response, biochemical, fluorescence polarization, BIM-BH3 peptide, 1536-well (AID 2217)
Induced myeloid leukemia cell differentiation protein Mcl-1, sequence (Q07820 whole entry): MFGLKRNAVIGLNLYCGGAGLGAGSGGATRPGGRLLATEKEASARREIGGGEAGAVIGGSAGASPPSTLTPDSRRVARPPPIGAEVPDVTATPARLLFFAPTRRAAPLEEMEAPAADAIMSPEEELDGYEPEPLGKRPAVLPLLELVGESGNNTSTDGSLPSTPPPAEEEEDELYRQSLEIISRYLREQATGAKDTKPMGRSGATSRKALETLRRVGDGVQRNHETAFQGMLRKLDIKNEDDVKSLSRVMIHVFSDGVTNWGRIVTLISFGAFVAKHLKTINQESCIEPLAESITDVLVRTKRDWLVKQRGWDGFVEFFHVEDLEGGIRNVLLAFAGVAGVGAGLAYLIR

Bcl-2-like protein 1 = Bcl-2-like protein 1 (Homo sapiens, UniProt Q07817); assay: BCL-XL inhibitors, dose response, selectivity assay for MCL1 inhibitor project, biochemical, fluorescence polarization, 1536-well (AID 2218)
Bcl-2-like protein 1, sequence (Q07817 whole entry): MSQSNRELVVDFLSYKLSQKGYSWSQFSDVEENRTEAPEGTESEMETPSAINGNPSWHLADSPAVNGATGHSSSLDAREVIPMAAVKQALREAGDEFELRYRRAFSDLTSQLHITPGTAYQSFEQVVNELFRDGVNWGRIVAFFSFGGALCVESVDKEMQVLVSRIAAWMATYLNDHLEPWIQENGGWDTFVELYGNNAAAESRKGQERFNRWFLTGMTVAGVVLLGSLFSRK

[10] = biological target: DNA dC->dU-editing enzyme APOBEC-3A (Homo sapiens, UniProt P31941); assay: APOBEC3A DNA deaminase inhibitors, dose response, biochemical (AID 504722); assay type: functional
DNA dC->dU-editing enzyme APOBEC-3A, sequence (P31941 whole entry): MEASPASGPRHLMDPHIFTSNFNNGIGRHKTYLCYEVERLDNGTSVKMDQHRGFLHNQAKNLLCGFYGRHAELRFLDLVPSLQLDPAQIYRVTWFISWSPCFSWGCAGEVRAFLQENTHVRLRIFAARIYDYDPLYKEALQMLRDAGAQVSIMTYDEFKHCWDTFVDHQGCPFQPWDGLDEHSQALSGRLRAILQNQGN

[11] = biological target: DNA dC->dU-editing enzyme APOBEC-3G (Homo sapiens, UniProt Q9HC16); assay: Dose Response confirmation of small molecule APOBEC3G DNA Deaminase Inhibitors via a fluorescence-based single-stranded DNA deaminase assay. [Related pubchem assays (depositor defined):AID493012, AID493028]; assay type: functional
DNA dC->dU-editing enzyme APOBEC-3G, sequence (Q9HC16 whole entry): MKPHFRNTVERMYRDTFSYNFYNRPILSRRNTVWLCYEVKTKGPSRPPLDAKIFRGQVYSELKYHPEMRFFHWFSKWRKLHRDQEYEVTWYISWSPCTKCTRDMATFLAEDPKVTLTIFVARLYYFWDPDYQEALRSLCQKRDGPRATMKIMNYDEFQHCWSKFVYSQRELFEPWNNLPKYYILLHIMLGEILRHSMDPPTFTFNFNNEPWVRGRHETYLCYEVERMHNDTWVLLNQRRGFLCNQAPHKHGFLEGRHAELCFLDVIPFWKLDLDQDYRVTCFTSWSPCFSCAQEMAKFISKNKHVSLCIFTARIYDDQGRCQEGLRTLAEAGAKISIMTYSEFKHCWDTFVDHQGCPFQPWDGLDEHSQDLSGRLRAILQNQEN

[12] = biological target: T4, Polyadenylate-binding protein 1 (Homo sapiens, UniProt P11940); assay: PABP1 MLLE–PAM2 interaction inhibitors, dose response, miRNA deadenylation inhibitor project, biochemical, fluorescence polarization, Cy5-PAM2 peptide, secondary (AID 602260); assay type: functional; details: read-out: IC50_Mean
T4 sequence (P11940 whole entry): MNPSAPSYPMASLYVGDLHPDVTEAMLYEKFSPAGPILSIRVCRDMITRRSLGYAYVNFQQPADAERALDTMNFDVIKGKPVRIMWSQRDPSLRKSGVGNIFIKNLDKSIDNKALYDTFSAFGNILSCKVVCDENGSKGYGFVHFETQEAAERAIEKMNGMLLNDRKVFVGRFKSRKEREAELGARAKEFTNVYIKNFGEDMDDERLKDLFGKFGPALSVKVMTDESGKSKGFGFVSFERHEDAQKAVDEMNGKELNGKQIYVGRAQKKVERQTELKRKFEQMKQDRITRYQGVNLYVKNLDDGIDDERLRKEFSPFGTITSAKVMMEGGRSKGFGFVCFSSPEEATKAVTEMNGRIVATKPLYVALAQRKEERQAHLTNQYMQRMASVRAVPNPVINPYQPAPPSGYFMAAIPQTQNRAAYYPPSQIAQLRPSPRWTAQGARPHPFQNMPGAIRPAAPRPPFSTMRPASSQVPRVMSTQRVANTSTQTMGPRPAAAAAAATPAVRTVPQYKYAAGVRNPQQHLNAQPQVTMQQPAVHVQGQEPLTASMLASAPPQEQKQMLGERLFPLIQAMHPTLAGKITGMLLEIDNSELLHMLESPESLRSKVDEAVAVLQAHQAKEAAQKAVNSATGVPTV

[13] = biological target: T4, Polyadenylate-binding protein 1; assay: PABP1 MLLE–PAM2 binding inhibitor potency, dose response, biochemical, fluorescence polarization, FITC-PAM2 peptide (AID 602259); assay type: functional; details: read-out: IC50_Mean

With `Cc1ccccc1N(C(=O)c1snc(C(N)=O)c1N)C(C(=O)NCC1CCCO1)c1ccc(N(C)C)cc1` (centres undefined) the IC50 [1] was 13.6 µM (not active) and the IC50 [2] was > 111 µM (not active).
For `COc1cc(/C=C(/C#N)C(=O)Nc2ccccc2)c(Br)cc1OCc1ccc(C(=O)O)cc1`, the EC50 [3] was > 50 µM (active) and the IC50 (Genome polyprotein) was 66.6 µM (active).
With `O=[N+]([O-])c1cccc(/N=C/C2=C(O)c3ccccc3CC2)c1` the IC50 [4] was 10.3 µM (active), the IC50 [5] was > 50 µM (not active) and the AC50 [6] was > 380 µM (inactive). The EC50 (Protein RecA) was 10.6 µM (active).
In the case of `Cc1ccc([N+](=O)[O-])cc1-c1[nH]c(-c2ccc(O)c(O)c2)nc1-c1ccccc1`, the EC50 [7] is reported as 57.8 µM (active), the IC50 (Aspartyl aminopeptidase) is reported as 1.69 µM (active) and the IC50 (Procathepsin L) is reported as > 59.6 µM (not active). For the same compound, the EC50 [8] was > 38 µM (not active).
For `C=CCn1c(S)nnc1CSc1ccccc1[N+](=O)[O-]`, the IC50 [9] was 29.6 µM (not active), the IC50 (Bcl-2-like protein 1) was > 109 µM (not active) and the IC50 [10] was 38.9 µM (active). For the same compound, the IC50 [11] was 2.24 µM (active).
For `O=C(NC(=S)Nc1ccc(S(=O)(=O)Nc2nccs2)cc1)c1cccnc1`, the EC50 [3] was > 50 µM (active), the IC50 [12] was > 66 µM (inactive) and the IC50 [13] was > 66 µM (inactive).
